# What was measured:
# [1] = test system: complex IV (cytochrome c oxidase); assay: Complex IV activity of C2C12 myotubes; type: cell-based; details: Mus musculus, C2C12, 72 h, 3 days, change vs control, trend p<0.07
# Protocol: (§1) Mouse myoblasts of the C2C12 cell line (ATCC) were seeded at a plating density of 7000 cells/cm2 in 6-well plates. They were grown in DMEM high glucose (4.5g/l) supplemented with gentamycin (50 µg/mL), amphotericin (50 µg/mL), and fetal calf serum (10%). Terminal differentiation was induced at cell confluence by lowering the medium serum concentration (0.5%).
# (§2) When indicated, FuFA-F2 was added to the culture medium at the indicated concentration. For the differentiation studies, FuFA-F2 was added at the confluence at the same time as the change in media condition. Three doses of FuFA-F2 were studied at a final concentration of 1, 10, or 50 µM. Human insulin was used at a concentration of 100 nM.
# (§3) Mitochondrial respiratory complex activities were determined as previously described (Casas et al., 2008, PloS ONE, Vol. 3(6) : e2501). Citrate synthase (CS) activity was measured according to Srere (Srere et al., 1967, Science, Vol. 158(3803) : 936-937) by following the color formation of 5-thio-2-nitrobenzoic acid at 412 nm. The enzymatic activity of complex IV (cytochrome c oxidase) was measured according to Wharton and Tzagoloff (Wharton et al., 1967, Methods in Enzymology, Vol. 10, Edn Elsevier BV, Amsterdam, The Netherlands), a spectrophotometer following the oxidation of reduced cytochrome c at 550 nm, pH 7.4, and 37 °C. Cytochrome c was reduced with sodium dithionite. […]
# complex IV = assay: Mitochondrial complex IV activity in quadriceps of supplemented C57Bl6 mice; type: in vivo; details: 20mg/kg oral gavage, vs control
# Protocol: (§4) Male C57Bl/6J wild-type mice were obtained from Janvier at 12 weeks of age and were randomly assigned to one of the two groups based on body weight. Mice were housed 2 per cage and maintained on a 12-hour light/dark cycle (lights on at 7:30 pm). Food and water were provided ad libitum. Enrichment (nesting cotton squares) was provided in each cage. Mice were treated once daily by oral gavage with vehicle (50% PEG-400, 0.5% Tween 80, and 49.5% distilled water) or FuFA-F2 (20 mg/kg). All animal experiments were performed according to European directives (86/609/CEE and 2010/63/CEE) and approved by the regional animal experimentation ethics committe: Région Languedoc-Roussillon (No36). […]
# as §3, with “°C.” for “°C. Cytochrome c was reduced with sodium dithionite.”
# [2] = test system: AMP activated protein kinase (AMPK); assay: AMPK phosphorylation by Western blot in C2C12 myotubes; type: cell-based, Mouse; details: whatever the dose
# Protocol: as §1, §2
# Protein levels were assessed by Western blotting. Total proteins were measured using the Bio-Rad protein assay (Hercules, CA, USA) according to the manufacturer's instructions. […]
# AMP activated protein kinase (AMPK) is a crucial cellular energy sensor protein and is activated when intracellular ATP level decreases to regulate autophagy initiation (Hardie et al., 2012, Nat Rev Mol Cell Bio, Vol. 13 (4) : 251-262). […] The autophagy-related signaling was further evaluated by measuring the MTORC1 mediated phosphorylation […] at Ser757 which disrupts the interaction between ULK1 and AMPK. […] Therefore, the autophagic flux was assessed by measuring the conversion of LC3-I to LC3-II, through lipidation.
# Citrate synthase (CS) = assay: Citrate synthase activity in quadriceps of supplemented C57Bl6 mice; type: in vivo; details: 20mg/kg oral gavage
# Protocol: as §4
# as §3, with “°C.” for “°C. Cytochrome c was reduced with sodium dithionite.”
compound,measurement,setting,value
CCCCCc1cc(C)c(CCCCCCCCC(=O)O)o1 [FuFA-F2],activation at 10 µM,[1],60%
same,complex IV activity of mitochondrial respiratory chain complexes,complex IV,significant increase
same,"Activation level of AMPK, phosphorylation at Thr172",[2],significantly decreased
same,Citrate synthase (CS),Citrate synthase (CS),not modified
